Assay results published in patent publication US8709440B2, “Agent for expelling parasites in humans, animals or birds” (Momentum Animal Cure BVBA, priority 2009, dated 2014).

System: helminths that were resistant to ivermectine, pyrantel, praziquantel and moxidectine
Experiment: Treatment of Horse 4 severely infected with resistant parasites
Assay type: in vivo
Details: Horse 4 severely infected with parasites
Protocol: Horse 4 was treated with 38 g Asafoetida powder with Arabic gum mixed in milk and with cereal.

Row | Compound | result of several treatments
1 | CO/N=C1\C[C@]2(C[C@@H]3C[C@@H](C/C=C(\C)C[C@@H](C)/C=C/C=C4\CO[C@@H]5[C@H](O)C(C)=C[C@@H](C(=O)O3)[C@]45O)O2)O[C@H](/C(C)=C/C(C)C)[C@H]1C [moxidectine] | had no result
2 | O=C(C1CCCCC1)N1CC(=O)N2CCc3ccccc3C2C1 (stereo not shown) [praziquantel] | had no result
3 | CN1CCCN=C1/C=C/c1cccs1 [pyrantel] | had no result
4 | ivermectine | had no result
